Experimental data as given in publication PMC12152147, “DDB1 engagement defines the selectivity of S656 analogs for cyclin K degradation over CDK inhibition” (EMBO Reports, 2025).
Read-outs that look alike come from different tables or passages of the source.

Legend:
[1] = test system: OCI-AML5 cells; assay: Dose-response proliferative assay in OCI-AML5 (4 days, CellTiterGlo); format: cell-based, H. sapiens; conditions: read-out: IC50 in AML5
Procedure: Cell lines were purchased from the ATCC or donated from collaborators. OCI-AML5 cell line was cultured in αMEM, 10% heat-inactivated FBS supplemented with 10 ng/mL GM-CSF, OCI-AML1, U2OS and HEK293T cell lines in DMEM, 10% heat-inactivated FBS. Cells were maintained at 37 °C in 5% CO2 atmosphere.
Dose-response assays in primary AML specimens were performed as in chemical screen (see above) with the exception that compounds were tested in serial dilution (8 dilutions, 1:4, 10 μM down to 0.5 nM). Dose-response assays in OCI-AML5 cell line were conducted similarly with the following modifications: 300 cells per well were seeded in 50 μL of cell line media and cell viability was evaluated after 4 days in culture.

[2] = molecular target: T1, CDK9/CyclinT (Homo sapiens, UniProt P50750); assay: CDK9/CyclinT in vitro kinase activity, single concentration 1 μM; format: biochemical; conditions: single concentration 1 μM
T1 construct: purchased BPS Bioscience 79628
Procedure: (§1) Kinase activity was assessed using the kinase assay kits from BPS Bioscience for CDK1, CDK9 and CDK12 with Kinase Glo MAX in duplicates. Compounds were tested at a single concentration of 1 μM for CDK1 and CDK9 activity, and in a dilution ranging from 0.64 nM to 50 μM for CDK12 activity. Chemiluminescence was read using the Neo Synergy BioTek plate reader.

[3] = test system: OCI-AML5 cells expressing shRNAs targeting CDK1, 2, 4, 7, 9, cyclin K; assay: Dose response in OCI-AML5 expressing shRNAs targeting CDK1, 2, 4, 7, 9, cyclin K or control; format: cell-based, H. sapiens; conditions: for Class: class from shRNA IC50 profile and cyclin K-eGFP degradation; for class based on cellular selectivity: IC50 in shRNA OCI-AML5 cells and cyclin KeGFP degradation
[4] = molecular target: T2, CDK1 (Homo sapiens, UniProt P06493); assay: CDK1 in vitro kinase activity, single concentration 1 μM; format: biochemical; conditions: single concentration 1 μM
T2 construct: purchased BPS Bioscience 79597
Procedure: as §1

[5] = test system: cyclin KeGFP; assay: Cyclin KeGFP reporter system (eGFP/mCherry MFI by flow cytometry);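 note: 10 μM compound for 3 h relative to DMSO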; format: cell-based, H. sapiens; conditions: cyclin K-eGFP reporter
Procedure: We used the cyclin KeGFP reporter system previously described (Słabicki et al, [2020]). Lentiviral vector (Addgene plasmid #169930) was used to infect OCI-AML5 at a MOI of 5 and were selected with puromycin. Cells were seeded in methylcellulose and let grown as colonies for 10 days. Colonies were isolated, expanded and selected based on cyclin KeGFP fluorescence in presence and absence of cyclin K degrader molecules. Selected G7 clone was used for all reported experiments. Fluorescent signal of cyclin KeGFP and mCherry were quantified by flow cytometry (BD LSRII) in each condition and the geometric mean fluorescence intensity (MFI) were calculated using FlowJo (BD Biosciences). The ratio of eGFP to mCherry was normalized to DMSO-treated cells.

[6] = test system: OCI-AML5 cells expressing shRNA targeting CUL4A or CUL4B; assay: Dose response in OCI-AML5 expressing shRNAs targeting CUL4A, CUL4B or control; format: cell-based, H. sapiens; conditions: ratio of IC50 in shCUL4A vs shCTRL OCI-AML5 cells
[7] = Homo sapiens, OCI-AML-5, OCI-AML5 cells
[8] = Homo sapiens, OCI-AML-5, OCI-AML5 expressing shRNA CCNK (cyclin K), read-out: IC50 shRNA CCNK
[9] = Homo sapiens, OCI-AML-5, OCI-AML5 expressing shRNA CDK1, read-out: IC50 shRNA CDK1
[10] = Homo sapiens, OCI-AML-5, OCI-AML5 expressing shRNA CDK2, read-out: IC50 shRNA CDK2
[11] = Homo sapiens, OCI-AML-5, OCI-AML5 expressing shRNA CDK4, read-out: IC50 shRNA CDK4
[12] = Homo sapiens, OCI-AML-5, OCI-AML5 expressing shRNA CDK7, read-out: IC50 shRNA CDK7
[13] = Homo sapiens, OCI-AML-5, OCI-AML5 expressing shRNA CDK9, read-out: IC50 shRNA CDK9
[14] = OCI-AML5 expressing shRNA CCNK (cyclin K), read-out: IC50 shRNA CCNK
[15] = OCI-AML5 expressing shRNA CDK1, read-out: IC50 shRNA CDK1
[16] = OCI-AML5 expressing shRNA CDK2, read-out: IC50 shRNA CDK2
[17] = OCI-AML5 expressing shRNA CDK4, read-out: IC50 shRNA CDK4
[18] = OCI-AML5 expressing shRNA CDK7, read-out: IC50 shRNA CDK7
[19] = OCI-AML5 expressing shRNA CDK9, read-out: IC50 shRNA CDK9

T1 sequence (P50750 whole entry): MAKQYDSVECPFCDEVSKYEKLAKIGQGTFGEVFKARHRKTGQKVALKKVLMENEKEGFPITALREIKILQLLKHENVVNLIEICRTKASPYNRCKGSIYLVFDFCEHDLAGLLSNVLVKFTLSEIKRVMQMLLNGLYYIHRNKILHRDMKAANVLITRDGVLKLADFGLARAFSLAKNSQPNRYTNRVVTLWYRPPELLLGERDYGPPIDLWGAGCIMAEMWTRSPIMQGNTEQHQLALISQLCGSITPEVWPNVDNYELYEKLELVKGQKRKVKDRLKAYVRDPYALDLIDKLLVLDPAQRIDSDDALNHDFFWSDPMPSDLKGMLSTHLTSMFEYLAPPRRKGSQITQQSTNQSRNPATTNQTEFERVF
T1 sequence (O60563 whole entry partner): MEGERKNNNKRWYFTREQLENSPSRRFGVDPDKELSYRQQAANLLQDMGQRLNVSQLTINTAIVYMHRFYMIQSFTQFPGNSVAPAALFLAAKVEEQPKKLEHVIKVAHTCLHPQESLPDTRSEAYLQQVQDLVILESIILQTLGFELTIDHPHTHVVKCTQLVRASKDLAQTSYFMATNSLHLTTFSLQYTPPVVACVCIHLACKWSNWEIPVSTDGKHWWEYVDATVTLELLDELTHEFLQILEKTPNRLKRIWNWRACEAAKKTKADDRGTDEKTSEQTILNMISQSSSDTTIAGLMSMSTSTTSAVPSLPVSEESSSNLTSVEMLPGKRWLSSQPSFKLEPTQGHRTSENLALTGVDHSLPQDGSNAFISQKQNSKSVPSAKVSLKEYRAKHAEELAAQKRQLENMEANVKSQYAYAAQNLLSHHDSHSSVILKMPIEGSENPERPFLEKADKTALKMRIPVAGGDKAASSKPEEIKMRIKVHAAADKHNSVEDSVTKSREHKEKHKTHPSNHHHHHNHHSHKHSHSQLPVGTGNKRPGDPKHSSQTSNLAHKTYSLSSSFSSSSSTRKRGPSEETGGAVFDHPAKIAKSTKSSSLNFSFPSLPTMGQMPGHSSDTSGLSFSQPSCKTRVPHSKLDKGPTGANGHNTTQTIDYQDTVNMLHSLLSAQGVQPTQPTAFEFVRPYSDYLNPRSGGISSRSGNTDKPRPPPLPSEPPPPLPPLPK
T2 sequence (P06493 whole entry): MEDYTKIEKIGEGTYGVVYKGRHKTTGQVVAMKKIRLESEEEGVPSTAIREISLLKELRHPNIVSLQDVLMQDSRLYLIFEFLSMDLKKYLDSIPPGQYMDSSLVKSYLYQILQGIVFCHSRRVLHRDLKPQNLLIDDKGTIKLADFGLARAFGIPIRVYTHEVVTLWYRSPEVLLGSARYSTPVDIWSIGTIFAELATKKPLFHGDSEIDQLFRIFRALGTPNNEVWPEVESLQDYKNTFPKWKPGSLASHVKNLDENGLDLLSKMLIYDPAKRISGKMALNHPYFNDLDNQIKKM
T2 sequence (P14635 whole entry partner): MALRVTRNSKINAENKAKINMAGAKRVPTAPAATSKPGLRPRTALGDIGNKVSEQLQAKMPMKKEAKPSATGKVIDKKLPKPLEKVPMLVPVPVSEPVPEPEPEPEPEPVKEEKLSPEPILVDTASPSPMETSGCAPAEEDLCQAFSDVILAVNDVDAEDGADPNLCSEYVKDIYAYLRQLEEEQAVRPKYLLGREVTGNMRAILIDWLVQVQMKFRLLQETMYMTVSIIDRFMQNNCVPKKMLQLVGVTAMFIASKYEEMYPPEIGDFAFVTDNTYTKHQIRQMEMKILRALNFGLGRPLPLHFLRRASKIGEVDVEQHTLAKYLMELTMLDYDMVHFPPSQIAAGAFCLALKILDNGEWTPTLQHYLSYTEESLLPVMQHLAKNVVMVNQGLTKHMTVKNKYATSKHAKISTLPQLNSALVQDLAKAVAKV

Structure (SMILES) | IC50 [1, 7] [nM] | inhibition at 1 µM [2] [%] | IC50 [3, 8] [nM] | IC50 [3, 9] [nM] | IC50 [3, 10] [nM] | IC50 [3, 11] [nM] | IC50 [3, 12] [nM] | IC50 [3, 13] [nM] | Class [3] | inhibition at 1 µM [4] [%] | % degradation cyclin K-eGFP [5] [%] | Ratio shCUL4A/shCTRL [6] | further results
CC(=O)N[C@@H]1CCC[C@H](C(=O)Nc2cc(-c3cnn4c3CC(C)(C)C4)c(Cl)cn2)C1 [AZD4573, reference compound] | 1 | 100 | 1.09 | 1.06 | 1.06 | 1.05 | 1.67 | 0.727 | 2 | 90 |  |  | 
[N-]=[N+]=Nc1ccc(CC(=O)Nc2ncc(SCc3cccnc3)s2)cc1 [UOM-005062] | 2180 | 99 | 921 | 1280 | 2320 | 2620 | 2520 | 1490 | mixed 1-2 | 63 | 45 | 1.35 | 
O=C(Cc1ccccc1)Nc1ncc(SCc2cccnc2)s1 [UOM-005190] |  |  |  |  |  |  |  |  | 2 |  | 26 | 1.19 | IC50 ([1]; OCI-AML5 cells): 2380 nM; % CDK9 inhibition [2]: 24%; IC50 [3, 14]: 2530 nM; IC50 [3, 15]: 815 nM; IC50 [3, 16]: 2690 nM; IC50 [3, 17]: 3280 nM; IC50 [3, 18]: 2900 nM; IC50 [3, 19]: 1660 nM; % CDK1 inhibition [4]: 79%
O=C(Cc1ccc(F)cc1)Nc1ncc(SCc2cccnc2)s1 [UOM-005197] | 2790 | 57 | 3580 | 1350 | 2690 | 3400 | 3360 | 1810 | 2 | 59 | 24 | 1.15 | class based on cellular selectivity [3]: Class II
O=C(Cc1ccc(Cl)cc1)Nc1ncc(SCc2cccnc2)s1 [UOM-005198] | 2920 | 32 | 3040 | 1300 | 2760 | 3430 | 3430 | 2100 | 2 | 51 | 33 | 1.12 | class based on cellular selectivity [3]: Class II
O=C(Cc1ccc(Br)cc1)Nc1ncc(SCc2cccnc2)s1 [UOM-005199] | 2560 | 100 | 1500 | 1180 | 2940 | 2830 | 2800 | 1780 | mixed 1-2 | 60 | 64 | 0.67 | 
O=C(Cc1ccc(I)cc1)Nc1ncc(SCc2cccnc2)s1 [UOM-005200] | 1060 | 62 | 368 | 1080 | 1280 | 1110 | 1510 | 1020 | 1 | 87 | 77 | 2.36 | class based on cellular selectivity [3]: Class I (effective cyclin K MGDs (decreased IC50 in cyclin K depleted cells only, and >65% degradation of cyclin KeGFP))
COc1ccc(CC(=O)Nc2ncc(SCc3cccnc3)s2)cc1 [UOM-005201] | 3000 | 54 | 2010 | 1030 | 2880 | 3380 | 3110 | 1390 | 2 | 69 | 55 | 0.99 | class based on cellular selectivity [3]: Class II
O=C(Nc1ncc(SCc2cccnc2)s1)C1CCNCC1 [UOM-005283] | 3860 | 71 | 3700 | 4180 | 4640 | 3900 | 3020 | 2840 |  |  | 4 | 0.91 | 
Cl.Cl.O=C(CC1CCNC1)Nc1ncc(SCc2cccnc2)s1 (stereo not shown) [UOM-005300] | 7070 | 64 | 5410 | 3380 | 5420 | 4450 | 2900 | 3010 | 2 |  | 5 | 1.07 | 
C=C(C(=O)Nc1ncc(SCc2cccnc2)s1)c1ccc2c(c1)[nH]c1ccc(Cl)cc12 [UOM-005447] | 7360 | 73 | 5410 | 3210 | 3430 | 3940 | 4090 | 4740 | 2 |  | 63 | 0.72 | 
O=C(Cc1ccc(NC(=O)c2ccccn2)cc1)Nc1ncc(SCc2cccnc2)s1 [UOM-005474] | 1240 | 59 | 1000 | 753 | 927 | 1080 | 949 | 551 | 2 |  | 5 | 1.03 | 
O=C(Cc1ccc(NC(=O)C23CC4CC(CC(C4)C2)C3)cc1)Nc1ncc(SCc2cccnc2)s1 [UOM-005477] |  |  |  |  |  |  |  |  | 2 |  | 6 | 0.9 | IC50 ([1]; OCI-AML5 cells): 1250 nM; % CDK9 inhibition [2]: 81%; IC50 [3, 14]: 1030 nM; IC50 [3, 15]: 741 nM; IC50 [3, 16]: 1090 nM; IC50 [3, 17]: 1200 nM; IC50 [3, 18]: 940 nM; IC50 [3, 19]: 594 nM
O=C(Cc1ccc(NC(=O)c2ccccc2)cc1)Nc1ncc(SCc2cccnc2)s1 [UOM-005478] | 1350 | 82 | 1060 | 548 | 1080 | 1050 | 1020 | 355 | 2 |  | 8 | 0.95 | 
O=C(Cc1cnccn1)Nc1ncc(SCc2cccnc2)s1 [UOM-005482] | > 10000 | 20 | > 10000 | 3220 | > 10000 | > 10000 | > 10000 | 5920 | 2 | 34 | 0 |  | 
O=C(Cc1ccccn1)Nc1ncc(SCc2cccnc2)s1 [UOM-005566] | 6560 | 15 | 6050 | 3920 | 7030 | 8880 | 7580 | 5480 | 2 |  | 4 | 1.07 | 
O=C(Cc1ccc(N2CCCCC2)cc1)Nc1ncc(SCc2cccnc2)s1 [UOM-005607] | 1850 | 90 | 866 | 792 | 3010 | 2190 | 2050 | 910 | mixed 1-2 |  | 30 | 0.9 | 
